Values of other authors in article PMC6724535 (Journal of molecular biology, 2019).

Assays:
E. coli expressing TetX = E. coli expressing TetX vs wild-type E. coli
[1] = system: E. coli expressing TetK, TetA, TetB, and TetM
[2] = system: E. coli expressing AACs, ANTs, APHs and 16S rRNA ribosomal methyltransferases

## CN(C)[C@@H]1C(O)=C(C(N)=O)C(=O)[C@@]2(O)C(O)=C3C(=O)c4c(O)c(NC(=O)CN5CCCC5)cc(F)c4C[C@H]3C[C@@H]12 [eravacycline]
E. coli expressing TetX
  increase in minimal inhibitory concentration (MIC) relative to wild-type E. coli: 64 fold
[1]
  antibacterial activity: maintained nearly full antibacterial activity

## CN[C@@H]1[C@@H](O)[C@@H](O[C@@H]2[C@@H](O)[C@H](O[C@H]3OC(CNCCO)=CC[C@H]3N)[C@@H](N)C[C@H]2NC(=O)[C@@H](O)CCN)OC[C@]1(C)O [plazomicin]
[2]; majority of canonical AACs, ANTs, and APHs
  activity against E. coli expressing aminoglycoside inactivating enzymes: maintain activity
[2]; some plasmid-encoded 16S rRNA ribosomal methyltransferases
  antibacterial activity with ribosomal methyltransferases: completely abolish

## jessenipeptin
D. discoideum
  amoebicidal activity IC50: 4 µg/mL
